Measured values published in PubChem BioAssay AID720620 (The Scripps Research Institute Molecular Screening Center, 2013).
Activity calls are given as the source filed them.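 The calls were made as follows: active = at least 50% inhibition of the human mitochondrial methionine-charging enzyme at 10 µM; inactive = under 50% inhibition at 10 µM.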

Biological target: Methionine--tRNA ligase, mitochondrial (Homo sapiens) (UniProt Q96GW9)
Assay: human mitochondrial MetRS inhibitors, late-stage follow-up, counter-screen for T. brucei MetRS inhibitor project, biochemical, radioactivity, [3H]methionine, two concentrations (AID 720620)
Settings: recombinant human mitochondrial MetRS, [3H]Met-tRNA charging, 60 min, stronger effect = higher value

Methionine--tRNA ligase, mitochondrial (Homo sapiens), sequence (Q96GW9 whole entry, looked up): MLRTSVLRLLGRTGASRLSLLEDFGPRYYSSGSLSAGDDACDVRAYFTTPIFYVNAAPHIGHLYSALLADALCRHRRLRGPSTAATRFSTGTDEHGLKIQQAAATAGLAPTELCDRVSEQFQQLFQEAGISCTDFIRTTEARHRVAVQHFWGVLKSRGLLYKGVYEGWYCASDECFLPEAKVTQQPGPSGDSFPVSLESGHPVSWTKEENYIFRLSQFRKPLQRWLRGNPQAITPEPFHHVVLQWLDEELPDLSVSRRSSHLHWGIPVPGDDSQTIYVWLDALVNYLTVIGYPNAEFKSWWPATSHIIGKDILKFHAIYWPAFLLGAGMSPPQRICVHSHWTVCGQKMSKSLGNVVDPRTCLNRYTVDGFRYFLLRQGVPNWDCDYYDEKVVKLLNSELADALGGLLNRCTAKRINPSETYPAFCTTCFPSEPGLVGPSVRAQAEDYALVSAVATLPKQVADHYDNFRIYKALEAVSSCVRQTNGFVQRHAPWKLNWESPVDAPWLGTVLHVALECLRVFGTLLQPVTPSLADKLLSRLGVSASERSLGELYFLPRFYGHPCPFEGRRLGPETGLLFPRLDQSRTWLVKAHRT

CC(C)OCCCN1CC(=O)N2C(c3cccc([N+](=O)[O-])c3)c3[nH]c4ccccc4c3C[C@H]2C1=O (some centres undefined)
inhibition (at 10 µM): -3.65% (inactive)
inhibition (inhibition, at 1 µM): -24.2%

CC(C)(C)[C@H]1C=C(C(=O)NCc2nc3ccccc3[nH]2)O[C@@H](OCc2ccc(CO)cc2)C1
inhibition (at 10 µM): 10.3% (inactive)
inhibition (inhibition, at 1 µM): -20.5%

Clc1ccc(OCCSCc2nc3ccccc3[nH]2)cc1
inhibition (at 10 µM): -5.52% (inactive)
inhibition (inhibition, at 1 µM): -20%

CC(CC(=O)Nc1cccc(Br)c1)=NNC(=O)c1ccc(O)cc1O
inhibition (at 10 µM): 4.55% (inactive)
inhibition (inhibition, at 1 µM): -24.6%

O=C(NCc1nc2ccccc2[nH]1)C1=C[C@@H](c2csc3ccccc23)C[C@@H](OCCCCO)O1
inhibition (at 10 µM): 6.67% (inactive)
inhibition (inhibition, at 1 µM): -15%

CCCCCCCCCC1NC(C(=O)O)Cc2c1[nH]c1ccccc21 (centres undefined)
inhibition (at 10 µM): 9.9% (inactive)
inhibition (inhibition, at 1 µM): -2.41%

Clc1ccc(-c2nnc(SCc3nc4ccccc4[nH]3)o2)c(Cl)c1
inhibition (at 10 µM): 41.9% (inactive)
inhibition (inhibition, at 1 µM): -3.17%

Cc1ccc(NC(=O)CN(C)C(=O)CCSc2ccc(F)cc2)cc1
inhibition (at 10 µM): -21.5% (inactive)
inhibition (inhibition, at 1 µM): -35.7%

O=C(CC=NOCc1ccc([N+](=O)[O-])cc1)Nc1ccc(Cl)cc1
inhibition (at 10 µM): 1.47% (inactive)
inhibition (inhibition, at 1 µM): -13%

CN1CC(=O)N2C(c3cccc([N+](=O)[O-])c3)c3[nH]c4ccccc4c3C[C@H]2C1=O (some centres undefined)
inhibition (at 10 µM): 14% (inactive)
inhibition (inhibition, at 1 µM): -17.1%

O=C(NCc1nc2ccccc2[nH]1)C1=C[C@@H](c2ccccc2)C[C@@H](OCc2ccc(CO)cc2)O1
inhibition (at 10 µM): 15.8% (inactive)
inhibition (inhibition, at 1 µM): -16.8%

O=C(NCc1nc2ccccc2[nH]1)C1=C[C@H](c2csc3ccccc23)C[C@H](OCCCCO)O1
inhibition (at 10 µM): 2.21% (inactive)
inhibition (inhibition, at 1 µM): -9.21%

CN(Cc1cc(Cl)cc(Cl)c1)[C@H]1C[C@H]2c3[nH]c4ccccc4c3CCN2C(=O)[C@H]1CO
inhibition (at 10 µM): 80.3%
inhibition (inhibition, at 1 µM): 14%

COc1ccc(OCC(O)CNC(=O)Nc2ccc(Cl)cc2)cc1 (centres undefined)
inhibition (at 10 µM): 0.31% (inactive)
inhibition (inhibition, at 1 µM): -6.26%

Oc1c(Cl)cc(Cl)cc1CNc1nc2ccccc2[nH]1
inhibition (at 10 µM): 31.4% (inactive)
inhibition (inhibition, at 1 µM): -0.2%

COc1ccc2[nH]c3nc(SCC(=O)Nc4ccc5c(c4)OCO5)nnc3c2c1
inhibition (at 10 µM): 24.5% (inactive)
inhibition (inhibition, at 1 µM): 14.3%

CN(CC(=O)Nc1ccc(Cl)cc1)C(=O)c1ccc(-n2cncn2)c([N+](=O)[O-])c1
inhibition (at 10 µM): -19.1% (inactive)
inhibition (inhibition, at 1 µM): -36.7%

O=C(NNC(=O)c1cc(-c2ccc(Cl)c(Cl)c2)nc2ccccc12)Nc1ccccc1
inhibition (at 10 µM): -11.2% (inactive)
inhibition (inhibition, at 1 µM): -17.1%

CCOC(=O)N1CCC(Nc2c(Nc3ccc(F)cc3)c(=O)c2=O)CC1
inhibition (at 10 µM): -4.56% (inactive)
inhibition (inhibition, at 1 µM): -8.53%

O=C(N/C(=C\c1cccnc1)c1nc2ccccc2[nH]1)c1cccc(Br)c1
inhibition (at 10 µM): 4.89% (inactive)
inhibition (inhibition, at 1 µM): -19.7%

O=C(CCC(=O)Nc1cccc([N+](=O)[O-])c1)NN=Cc1cccs1
inhibition (at 10 µM): -14.1% (inactive)
inhibition (inhibition, at 1 µM): -28.9%

O=C(CC(=O)Nc1cccc(Cl)c1)NN=Cc1ccccc1
inhibition (at 10 µM): 9.82% (inactive)
inhibition (inhibition, at 1 µM): -18.3%

O=C(CC=NOCc1ccc([N+](=O)[O-])cc1)Nc1ccc(Br)cc1
inhibition (at 10 µM): -6.71% (inactive)
inhibition (inhibition, at 1 µM): -22.4%

CC(=O)c1ccc(N2CCN(C(=O)CCCn3c(=O)[nH]c4ccc(Br)cc4c3=O)CC2)cc1
inhibition (at 10 µM): 7.87% (inactive)
inhibition (inhibition, at 1 µM): -14.1%

O=C(NCCc1nc2ccccc2[nH]1)c1ccc(Cl)c([N+](=O)[O-])c1
inhibition (at 10 µM): 25.5% (inactive)
inhibition (inhibition, at 1 µM): 2.97%

CC(C)(C)[C@@H]1C=C(C(=O)NCc2nc3ccccc3[nH]2)O[C@H](OCc2ccc(CO)cc2)C1
inhibition (at 10 µM): -5.44% (inactive)
inhibition (inhibition, at 1 µM): -10.6%

O=C(NCc1nc2ccccc2[nH]1)C1=C[C@H](c2ccccc2)C[C@H](OCc2ccc(CO)cc2)O1
inhibition (at 10 µM): 12.7% (inactive)
inhibition (inhibition, at 1 µM): -8.08%
